One test concerns Pgp. Nature of the test: ATPase activity of detergent-solubilized Pgp, inhibition by CPI1. In kind it is biochemical, human. The conditions noted are these: Pgp 0.5 µM, 4 mM ATP, CPI1 25-fold molar excess; mean ± SE of three separate measurements. The method, then: (§1) Fig. 1. Identification of an MRP1-specific inhibitor. (A) Selection strategy for novel cyclic peptide MRP1 ligands. eGFP: enhanced green fluorescent protein; Nb: anti-eGFP nanobody. (B) CPI1 composition. The first residue in the sequence (Ac^DY1, yellow) is covalently bonded to the 17th residue (C17, green) via a thioether linkage. […] All values reported as the mean ± standard error (SE) of three separate measurements. The statistical significance was calculated using unpaired, parametric, two-sided t tests. Labels: not significant (n.s.), P < 0.05 (*), P < 0.01 (**), P < 0.001 (***) P < 0.0001 (****). […] (D) Dose–response curves of the basal and LTC4-stimulated ATPase activity of bMRP1. Rates of ATP hydrolysis were normalized to maximal activity. Data were fit to a modified version of the quadratic binding equation to account for free ligand depletion (Materials and Methods).
(§2) Bovine and human MRP1, as well as human Pgp, were expressed and purified as described previously. […]
(§3) ATPase activity was measured by recording the rate of NADH consumption during ATP regeneration from ADP. […] NADH consumption was measured by monitoring the rate of NADH fluorescence depletion (λex/λem 340/445 nm) using an Infinite M1000 microplate reader (Tecan) at 28 °C. […]

A further test has as its system hMRP1. Nature of the test: ATPase activity of detergent-solubilized hMRP1, inhibition by CPI1. In kind it is biochemical, human. The note with it: Fig. 1C: 1 µM hMRP1, 4 mM ATP, CPI1 25-fold molar excess. The method, then:
as §1, §2, §3

A further test has as its target T1, bMRP1 (Bos taurus, UniProt Q8HXQ5).
T1 construct: eGFP (C, cleaved yes); PreScission protease site (remnant after cleavage) (C); made in house; host or cells: HEK293S GnTI- cells infected with baculovirus (BacMam) made in Sf9 cells
Nature of the test: ATPase activity of detergent-solubilized bMRP1, inhibition by CPI1 (basal and LTC4-stimulated). Format: biochemical, bovine.

Another test has as its system P-glycoprotein (Pgp). The note with it: ref [26]–[28]; cited from earlier work. An excerpt: Abrogation of cancer drug resistance by pharmacological inhibition of MRP1 has long been pursued ([10]). […] However, the majority of available MRP1 inhibitors are repurposed from other drug discovery efforts and thus have inherent off-target issues ([24], [25]).

Entries after “also recorded” stand apart in the source; their conditions may differ. Where a SMILES comes first, the peptide text is derived from it. Bridges are numbered along the chain shown (N, C = ends). [ ]: non-standard residue; d: D form.

T1 sequence (Q8HXQ5 whole entry): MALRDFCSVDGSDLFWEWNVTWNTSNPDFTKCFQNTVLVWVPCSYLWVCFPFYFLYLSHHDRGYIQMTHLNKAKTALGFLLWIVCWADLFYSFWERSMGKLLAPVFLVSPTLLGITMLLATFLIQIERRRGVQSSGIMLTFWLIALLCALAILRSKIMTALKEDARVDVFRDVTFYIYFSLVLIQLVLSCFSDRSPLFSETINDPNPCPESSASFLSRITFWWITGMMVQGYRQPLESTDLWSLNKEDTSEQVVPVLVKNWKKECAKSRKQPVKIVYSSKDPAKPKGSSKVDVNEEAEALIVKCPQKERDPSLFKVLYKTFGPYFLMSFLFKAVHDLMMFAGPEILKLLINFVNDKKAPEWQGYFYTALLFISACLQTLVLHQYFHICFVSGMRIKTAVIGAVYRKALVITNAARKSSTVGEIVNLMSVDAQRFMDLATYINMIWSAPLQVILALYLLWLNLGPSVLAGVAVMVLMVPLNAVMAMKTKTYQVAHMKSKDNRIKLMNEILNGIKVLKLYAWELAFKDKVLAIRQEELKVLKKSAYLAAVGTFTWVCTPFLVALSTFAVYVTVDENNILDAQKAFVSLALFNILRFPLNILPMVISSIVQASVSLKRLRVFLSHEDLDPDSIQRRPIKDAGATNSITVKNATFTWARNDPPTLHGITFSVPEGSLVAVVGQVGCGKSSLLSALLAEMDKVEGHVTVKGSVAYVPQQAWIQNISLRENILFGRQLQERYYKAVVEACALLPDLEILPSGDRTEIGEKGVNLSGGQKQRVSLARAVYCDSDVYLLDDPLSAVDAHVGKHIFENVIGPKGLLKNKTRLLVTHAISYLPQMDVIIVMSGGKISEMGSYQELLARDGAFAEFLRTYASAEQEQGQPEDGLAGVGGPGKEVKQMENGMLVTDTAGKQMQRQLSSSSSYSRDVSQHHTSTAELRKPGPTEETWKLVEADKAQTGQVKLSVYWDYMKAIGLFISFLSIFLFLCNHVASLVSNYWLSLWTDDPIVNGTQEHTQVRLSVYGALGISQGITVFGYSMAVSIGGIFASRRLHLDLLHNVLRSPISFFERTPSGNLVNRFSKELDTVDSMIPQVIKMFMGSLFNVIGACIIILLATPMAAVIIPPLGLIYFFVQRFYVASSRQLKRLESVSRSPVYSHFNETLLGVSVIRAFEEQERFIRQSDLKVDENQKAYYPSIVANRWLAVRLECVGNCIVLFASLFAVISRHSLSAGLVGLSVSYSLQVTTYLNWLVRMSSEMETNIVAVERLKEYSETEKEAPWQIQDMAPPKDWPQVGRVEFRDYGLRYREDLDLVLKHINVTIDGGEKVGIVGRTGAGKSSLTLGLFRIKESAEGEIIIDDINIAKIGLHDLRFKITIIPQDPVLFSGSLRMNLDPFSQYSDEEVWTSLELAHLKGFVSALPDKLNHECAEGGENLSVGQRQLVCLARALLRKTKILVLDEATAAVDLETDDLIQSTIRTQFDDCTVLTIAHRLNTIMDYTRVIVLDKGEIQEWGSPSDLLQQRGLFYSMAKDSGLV
Method for bMRP1: All values reported as the mean ± standard error (SE) of three separate measurements. The statistical significance was calculated using unpaired, parametric, two-sided t tests. Labels: not significant (n.s.), P < 0.05 (*), P < 0.01 (**), P < 0.001 (***) P < 0.0001 (****). […] Rates of ATP hydrolysis were normalized to maximal activity. Data were fit to a modified version of the quadratic binding equation to account for free ligand depletion (Materials and Methods).
All protein purification steps were performed on ice or at 4 °C. Thawed cell pellets were resuspended with a handheld homogenizer (Polytron PT1200E) in a solution of 300 mM NaCl, 50 mM HEPES pH 8.0, 2 mM MgCl2, 2 mM dithiothreitol (DTT), and 20% glycerol with DNase I and protease inhibitors (1 µg/mL aprotinin, 0.6 mM benzamidine, 1 µg/mL leupeptin, 1 µg/mL pepstatin A, 1 mM phenylmethylsulfonyl fluoride, and 100 µg/mL soy trypsin inhibitor). Membranes were solubilized for 1.5 h by addition of 2% lauryl maltose neopentyl glycol and 0.2% cholesteryl hemisuccinate, after which insoluble material was removed by centrifugation for 40 min at 75,000 × g. Supernatant was mixed with GFP nanobody-conjugated Sepharose 4 Fast Flow resin (GE Healthcare) for 1.5 h, after which the slurry was packed into a column and washed with a solution of 0.06% digitonin, 150 mM NaCl, 50 mM HEPES pH 8.0, 2 mM MgCl2, 2 mM DTT, and 5% glycerol. PreScission protease was added to the column at a concentration of 0.35 mg/mL for 3 h to liberate MRP1 or Pgp from the GFP-nanobody resin. Eluate was passed through a glutathione sepharose resin to remove PreScission protease and concentrated with a 100 kDa molecular weight cutoff centrifugal filter. Concentrate was loaded onto a GE Healthcare Superose 6 size exclusion column equilibrated in 0.06% digitonin, 150 mM KCl, 50 mM Tris pH 8.0, 2 mM MgCl2, and 2 mM DTT. Peak fractions were collected, pooled, and concentrated for ATPase assays or freezing cryo-EM grids.
ATPase activity was measured by recording the rate of NADH consumption during ATP regeneration from ADP. […] ATPase activity was quantified by calculating the mean and SEM of at least three separate measurements from a single protein purification for each of bMRP1, hMRP1, and hPgp. Data were fit by nonlinear regression to the Michaelis–Menten equation using GraphPad Prism (Dotmatics).
0 = [R]tot × [L]tot - ([L]tot + [R]tot + Ki)[R·L] + [R·L]^2,
Range normalization factor = (Vmax - Vmin)

Turning to `CC(C)C[C@@H]1NC(=O)[C@H](CC(N)=O)NC(=O)CNC(=O)[C@H](Cc2c[nH]c3ccccc23)NC(=O)[C@H](Cc2ccccc2)NC(=O)[C@@H](Cc2ccc(O)cc2)NC(=O)CSC[C@@H](C(=O)O)NC(=O)[C@H]([C@@H](C)O)NC(=O)[C@H](CO)NC(=O)[C@H](CC(=O)O)NC(=O)[C@H](Cc2ccccc2)NC(=O)[C@H](CCC(N)=O)NC(=O)[C@H](CCC(=O)O)NC(=O)[C@H](Cc2ccc(O)cc2)NC(=O)[C@H](Cc2ccc(O)cc2)NC(=O)[C@H](Cc2c[nH]c3ccccc23)NC(=O)[C@H](Cc2c[nH]cn2)NC1=O` [CPI1] ({CH2CO}-[dY]FWGNLHWYYEQFDSTC-OH; thioether N-17; C-terminus assumed), in the test with Pgp, the “inhibition of Pgp (in words)” value is “only modest inhibition of Pgp when applied at a 25-fold molar excess; also recorded: minimal inhibition of a related multidrug transporter P-glycoprotein”. The “inhibition of ATPase activity (in words)” value is “robust inhibition of hMRP1 ATPase activity” with hMRP1; “inhibited the ATPase activity of both human and bovine MRP1” against bMRP1 (bMRP1, Fig. 1C: 1 µM bMRP1, 4 mM ATP, CPI1 25-fold molar excess). Further, on bMRP1, the Ki (commonly a measure of affinity in units of concentration, obtained from inhibition or displacement) was 70 ± 29 nM. The “affinity of CPI1 for MRP1” value at bMRP1 (approximate, Fig. 1D, compared with LTC4) is ~ 100 nM. Also, at bMRP1 (with respect to LTC4, inferred from shared binding site in structure and affinity), the “mode of inhibition (in words)” value is listed as “potent competitive inhibitor of LTC4”.
`O=C(NCCCN1CCOCC1)c1cnn2c(-c3ccccc3)cc(-c3ccccc3)nc12` [Reversan]: the “inhibition of P-glycoprotein (in words)” value in the test with P-glycoprotein (Pgp) is “also inhibit P-glycoprotein”.

These data come from paper PMC10089224, “A macrocyclic peptide inhibitor traps MRP1 in a catalytically incompetent conformation” (Proceedings of the National Academy of Sciences of the …, 2023).
